The term IC50 denotes the concentration at which inhibition is half-maximal.

The structures appear in SMILES notation.

The assay concerns the target TNAP (Homo sapiens (Human), UniProt P05186). In words: TNAP (PPi) inhibition assay, pyrophosphate as substrate. Type of assay: biochemical. Here is the method:
Expression plasmids containing a secreted epitope-tagged TNAP were transfected into COS-1 cells for transient expression. The medium was replaced with Opti-MEM 24 h later and serum-free media containing secreted proteins was collected 60 hours after electroporation. The medium was dialyzed against TBS containing 1 mM MgCl2 and […] (to remove phosphate) and filtered through a […] cellulose acetate filter.
To determine the inhibition selectivity for inhibitor candidates, human TNAP, PLAP or IAP were added to microtiter plates followed by addition of the substrate pNPP (0.5 mM) and activity was measured in 1 M DEA-HCl buffer, pH 9.8 or in 1 M Tris-HCl buffer, pH 7.5, containing 1 mM MgCl2 and 20 μM ZnCl2, in the presence of potential inhibitors (0-30 μM). TNAP, PLAP and IAP activities were adjusted to an approximate λA405 nm, equivalent to 1, measured after 30 min. Residual AP activity in the presence of inhibitors was expressed as percentage of the control activity. To investigate the mechanism of inhibition, double reciprocal plots of enzyme activity (expressed as mA405 nm min−1) vs. substrate concentration were constructed, in the presence of various concentrations of added inhibitors (0-30 μM). The y-axis intercepts of the 1/v vs. 1/[S] plots, were then plotted vs. [I] to graphically extract Ki values as the x-intercept in this plot. […] Inhibitors were further tested and sorted based on their kinetic properties at pH 7.4 using PPi, the relevant natural substrate of TNAP. […] Amounts of released phosphate were measured using the Biomol Green Reagent (Biomol Research Laboratories, Inc., Plymouth Meeting, Pa.).
With `COc1ccc(OC)c(S(=O)(=O)Nc2cncc(-c3ccc(O)cc3)c2)c1` [Example III-7, N-[5-(4-Hydroxy-phenyl)-pyridin-3-yl]-2,5-dimethoxy-benzenesulfonamide], the IC50 is under 100 nM.

Turning to `COc1ccc(Br)cc1S(=O)(=O)Nc1cncc(-c2ccc(O)cc2)c1` [Example III-8, 5-Bromo-N-[5-(4-hydroxy-phenyl)-pyridin-3-yl]-2-methoxy-benzenesulfonamide], the IC50 was under 100 nM.

In the case of `COc1ccc(OC)c(S(=O)(=O)Nc2cncc(-c3ccc(C)cc3)c2)c1` [Example III-10, 2,5-Dimethoxy-N-(5-p-tolyl-pyridin-3-yl)-benzenesulfonamide], the IC50 is 100 to 1000 nM.

The compound `COc1ccc(Br)cc1S(=O)(=O)Nc1cncc(-c2ccc(C)cc2)c1` [Example III-11, 5-Bromo-2-methoxy-N-(5-p-tolyl-pyridin-3-yl)-benzenesulfonamide] showed an IC50 of 100 to 1000 nM.

Regarding `COc1ccc(OC)c(S(=O)(=O)Nc2cncc(-c3ccc(C(F)(F)F)cc3)c2)c1` [Example III-13, 2,5-Dimethoxy-N-(5-(4-(trifluoromethyl)phenyl)pyridin-3-yl)benzenesulfonamide], the half-inhibitory concentration (IC50) fell in the range of 100 to 1000 nM.

`COc1ccc(Br)cc1S(=O)(=O)Nc1cncc(-c2ccc(C(F)(F)F)cc2)c1` [Example III-14, 5-Bromo-2-methoxy-N-(5-(4-(trifluoromethyl)phenyl)pyridin-3-yl)benzenesulfonamide] yielded an IC50 of 100 to 1000 nM.

As for `COc1ccc(Cl)cc1S(=O)(=O)Nc1cncc(-c2ccc(C(F)(F)F)cc2)c1` [Example III-15, 5-Chloro-2-methoxy-N-(5-(4-(trifluoromethyl)phenyl)pyridin-3-yl)benzenesulfonamide], the IC50 was in the range of 100 to 1000 nM.

With `COc1ccc(OC)c(S(=O)(=O)Nc2cncc(-c3ccc(F)cc3)c2)c1` [Example III-16, N-[5-(4-Fluoro-phenyl)-pyridin-3-yl]-2,5-dimethoxy-benzenesulfonamide], the IC50 was under 100 nM.

The compound `COc1ccc(Br)cc1S(=O)(=O)Nc1cncc(-c2ccc(F)cc2)c1` [Example III-17, 5-Bromo-N-[5-(4-fluoro-phenyl)-pyridin-3-yl]-2-methoxy-benzenesulfonamide] came in with an IC50 of under 100 nM.

With `COc1ccc(Cl)cc1S(=O)(=O)Nc1cncc(-c2ccc(F)cc2)c1` [Example III-18, 5-Chloro-N-[5-(4-fluoro-phenyl)-pyridin-3-yl]-2-methoxy-benzenesulfonamide], the IC50 is under 100 nM.

Compound `COc1ccc(OC)c(S(=O)(=O)Nc2cncc(-c3ccc(Cl)cc3)c2)c1` [Example III-19, N-[5-(4-Chloro-phenyl)-pyridin-3-yl]-2,5-dimethoxy-benzenesulfonamide] came in with a half-maximal inhibitory concentration (IC50) of 100 to 1000 nM.

With `COc1ccc(Br)cc1S(=O)(=O)Nc1cncc(-c2ccc(Cl)cc2)c1` [Example III-20, 5-Bromo-N-[5-(4-chloro-phenyl)-pyridin-3-yl]-2-methoxy-benzenesulfonamide], the IC50 lay within 100 to 1000 nM.

The compound `COc1ccc(OC)c(S(=O)(=O)Nc2cncc(-c3ccc(Br)cc3)c2)c1` [Example III-22, N-[5-(4-Bromo-phenyl)-pyridin-3-yl]-2,5-dimethoxy-benzenesulfonamide] returned an IC50 of 100 to 1000 nM.

In turn, `COc1ccc(Br)cc1S(=O)(=O)Nc1cncc(-c2ccc(Br)cc2)c1` [Example III-23, 5-Bromo-N-[5-(4-bromo-phenyl)-pyridin-3-yl]-2-methoxy-benzenesulfonamide] yielded an IC50 of 100 to 1000 nM.

The compound `COc1ccc(Cl)cc1S(=O)(=O)Nc1cncc(-c2ccc(Br)cc2)c1` [Example III-24, N-[5-(4-Bromo-phenyl)-pyridin-3-yl]-5-chloro-2-methoxy-benzenesulfonamide] returned an IC50 of 100 to 1000 nM.

Take `COc1ccc(OC)c(S(=O)(=O)Nc2cncc(-c3ccccc3)c2)c1` [Example III-25, N-(5-Phenyl-pyridin-3-yl)-2,5-Dimethoxy-benzenesulfonamide]: the IC50 was under 100 nM.

`COc1ccc(Br)cc1S(=O)(=O)Nc1cncc(-c2ccccc2)c1` [Example III-26, 5-Bromo-2-methoxy-N-(5-phenyl-pyridin-3-yl)-benzenesulfonamide]: the IC50 is under 100 nM.

For `COc1ccc(Cl)cc1S(=O)(=O)Nc1cncc(-c2ccccc2)c1` [Example III-27, 5-Chloro-2-methoxy-N-(5-phenyl-pyridin-3-yl)-benzenesulfonamide], the IC50 was under 100 nM.

`COC(=O)c1ccc(-c2cncc(NS(=O)(=O)c3cc(OC)ccc3OC)c2)cc1` [Example III-28, 4-[5-(2,5-Dimethoxy-benzenesulfonylamino)-pyridin-3-yl]-benzoic Acid methyl ester] displayed an IC50 of under 100 nM.

As to `COC(=O)c1ccc(-c2cncc(NS(=O)(=O)c3cc(Br)ccc3OC)c2)cc1` [Example III-29, 4-[5-(5-Bromo-2-methoxy-benzenesulfonylamino)-pyridin-3-yl]-benzoic Acid Methyl Ester], the IC50 is under 100 nM.

Turning to `COC(=O)c1ccc(-c2cncc(NS(=O)(=O)c3cc(Cl)ccc3OC)c2)cc1` [Example III-30, 4-[5-(5-Chloro-2-methoxy-benzenesulfonylamino)-pyridin-3-yl]-benzoic Acid Methyl Ester], the IC50 is under 100 nM.

Compound `COc1ccc(OC)c(S(=O)(=O)Nc2cncc(-c3ccc(C#N)cc3)c2)c1` [Example III-31, N-(5-(4-Cyanophenyl)pyridin-3-yl)-2,5-dimethoxybenzenesulfonamide] registered an IC50 of under 100 nM.

`COc1ccc(Br)cc1S(=O)(=O)Nc1cncc(-c2ccc(C#N)cc2)c1` [Example III-32, 5-Bromo-N-(5-(4-cyanophenyl)pyridin-3-yl)-2-methoxybenzenesulfonamide] returned an IC50 of under 100 nM.

In turn, `COc1ccc(Cl)cc1S(=O)(=O)Nc1cncc(-c2ccc(C#N)cc2)c1` [Example III-33, 5-Chloro-N-(5-(4-cyanophenyl)pyridin-3-yl)-2-methoxybenzenesulfonamide] registered a 50% inhibitory concentration (IC50) of under 100 nM.

The compound `COc1ccc(OC)c(S(=O)(=O)Nc2cncc(-c3ccccc3OC)c2)c1` [Example III-34, 2,5-Dimethoxy-N-[5-(2-methoxy-phenyl)-pyridin-3-yl]-benzenesulfonamide] returned an IC50 of 100 to 1000 nM.

In turn, `COc1ccccc1-c1cncc(NS(=O)(=O)c2cc(Br)ccc2OC)c1` [Example III-35, 5-Bromo-2-methoxy-N-[5-(2-methoxy-phenyl)-pyridin-3-yl]-benzenesulfonamide] registered an IC50 of under 100 nM.

Compound `COc1ccccc1-c1cncc(NS(=O)(=O)c2cc(Cl)ccc2OC)c1` [Example III-36, 5-Chloro-2-methoxy-N-[5-(2-methoxy-phenyl)-pyridin-3-yl]-benzenesulfonamide] yielded an IC50 of under 100 nM.

`COc1ccc(OC)c(S(=O)(=O)Nc2cncc(-c3ccccc3C)c2)c1` [Example III-37, 2,5-Dimethoxy-N-(5-(o-tolyl)pyridin-3-yl)benzenesulfonamide] showed a half-inhibitory concentration (IC50) of 100 to 1000 nM.

In turn, `COc1ccc(Br)cc1S(=O)(=O)Nc1cncc(-c2ccccc2C)c1` [Example III-38, 5-Bromo-2-methoxy-N-(5-(o-tolyl)pyridin-3-yl)benzenesulfonamide] registered an IC50 of 100 to 1000 nM.

With `COc1ccc(OC)c(S(=O)(=O)Nc2cncc(-c3ccccc3Cl)c2)c1` [Example III-40, N-[5-(2-Chloro-phenyl)-pyridin-3-yl]-2,5-dimethoxy-benzenesulfonamide], the IC50 is under 100 nM.

The compound `COc1ccc(Br)cc1S(=O)(=O)Nc1cncc(-c2ccccc2Cl)c1` [Example III-41, 5-Bromo-N-[5-(2-chloro-phenyl)-pyridin-3-yl]-2-methoxy-benzenesulfonamide] registered an IC50 of under 100 nM.

Turning to `COc1ccc(Cl)cc1S(=O)(=O)Nc1cncc(-c2ccccc2Cl)c1` [Example III-42, 5-Chloro-N-[5-(2-chloro-phenyl)-pyridin-3-yl]-2-methoxy-benzenesulfonamide], the concentration for half-maximal inhibition (IC50) was under 100 nM.

As to `COc1ccc(OC)c(S(=O)(=O)Nc2cncc(-c3ccccc3C(F)(F)F)c2)c1` [Example III-43, 2,5-Dimethoxy-N-[5-(2-trifluoromethyl-phenyl)-pyridin-3-yl]-benzenesulfonamide], the IC50 lay within 100 to 1000 nM.

In turn, `COc1ccc(Br)cc1S(=O)(=O)Nc1cncc(-c2ccccc2C(F)(F)F)c1` [Example III-44, 5-Bromo-2-methoxy-N-[5-(2-trifluoromethyl-phenyl)-pyridin-3-yl]-benzenesulfonamide] showed an IC50 of 100 to 1000 nM.

For `COc1cccc(-c2cncc(NS(=O)(=O)c3cc(OC)ccc3OC)c2)c1` [Example III-46, 2,5-Dimethoxy-N-[5-(3-methoxy-phenyl)-pyridin-3-yl]-benzenesulfonamide], the IC50 is under 100 nM.

For the compound `COc1cccc(-c2cncc(NS(=O)(=O)c3cc(Br)ccc3OC)c2)c1` [Example III-47, 5-Bromo-2-methoxy-N-[5-(3-methoxy-phenyl)-pyridin-3-yl]-benzenesulfonamide], the half-maximal inhibitory concentration (IC50) was under 100 nM.

Compound `COc1cccc(-c2cncc(NS(=O)(=O)c3cc(Cl)ccc3OC)c2)c1` [Example III-48, 5-Chloro-2-methoxy-N-[5-(3-methoxy-phenyl)-pyridin-3-yl]-benzenesulfonamide] came in with an IC50 of under 100 nM.

The values are drawn from patent US10370333B2 (Sanford Burnham Prebys Medical Discovery Institute, priority 2012, dated 2019).
